{"source": "patent US8168650B2", "about": "“Therapeutic uses of bicyclic ligands of sigma 2 receptor” (priority 2006, dated 2012)", "key": {"Panc-02 cells": {"test_system": "Panc-02 cells", "test": "Caspase inhibitors on sigma-2 receptor ligand-induced apoptosis in Panc-02 cells", "type": "cell-based, mouse", "procedure": "(§1) Tumor cells were seeded at a density of approximately 0.2×10^6 cells per well in 12-well plates in 1.0 ml culture medium. Cells were split and pre-incubated at 37° C. in humidified 5% CO2 for more than 24 hours (Panc-02) and 48 hours (CFPAC-1, AsPC-1, Panc-1) to insure uniform growth conditions. Compounds were dissolved in DMSO and added to the culture medium at the concentrations indicated. The final concentration of DMSO in the cell culture medium was less than 1%. The cells were then incubated for 24 hours at 37° C. in humidified 5% CO2. The extent of apoptosis was subsequently measured as previously reported (Guelen, L., et al., Oncogene 2004, 23: 1153-1165). Briefly, staining was performed on trypsin-EDTA treated cultures that had been fixed with 1% paraformaldehyde and 90% methanol. Cell pellets were resuspended in TUNEL reagent (APO-BRDU kit, San Diego, Calif.) or cleaved caspase-3 antibody (Cell Signaling Technology, Inc. Boston, Mass.) and incubated overnight at room temperature (TUNEL) or 4° C. (cleaved caspase-3). After washing, cells were resuspended in fluorescein antibody or 7-AAD buffer and incubated for 1 hour at room temperature. Cell-associated fluorescence was determined using a flow cytometry (FACScan, BD Biosciences) and analyzed with CellQuest software (BD Biosciences).\n(§2) At the highest dose tested (10 μM), all sigma-2 receptor ligands induced an additional 10-20% of the cells to undergo apoptosis (FIG. 15A). […] The pan-caspase inhibitor (Z-VAD-fmk) and caspase-3/7 inhibitor (DEVD-CHO) prevented sigma-2 receptor ligand-induced apoptosis in panc-02 cells, while the caspase-1 inhibitor (YVAD-CHO) had no effect (FIG. 15B)."}, "EMT-6 cells [1]": {"test_system": "EMT-6 cells", "test": "Colony formation assay on Doxorubicin-treated EMT-6 cells", "type": "cell-based, mouse", "procedure": "This Example illustrates colony formation assay on Doxorubicin (“Dox”)-treated EMT-6 cells in the presence or absence of 2 μM WC-II-26. The structures of the sigma ligands used in this and subsequent examples are illustrated in FIG. 5 and FIG. 6."}, "EMT-6 cells [2]": {"test_system": "EMT-6 cells", "test": "TUNEL assay, enhancement of Dox-induced apoptosis in EMT-6 cells", "type": "cell-based, mouse", "details": "EMT-6, Dox 30 nM alone", "procedure": "In these experiments, a TUNEL assay was used to detect apoptotic cells with damaged DNA strands. […] Furthermore, EMT-6 cells treated with Dox at 30 nM yielded only 10% TUNEL-positive cells. However, when EMT-6 cells were treated with 2 μM WC-II-26 plus 30 nM Dox, the percentage of TUNEL-positive cells rose to 43.3%."}, "EMT-6 cells [3]": {"test_system": "EMT-6 cells", "details": "EMT-6, 1 h pre-incubation with inhibitor (100 μM); for effect on cell death / cytotoxic effects induced by the three σ2 selective ligands: MTS assay", "experimental": "To determine the effect of blocking the caspase-dependent apoptotic pathway on sigma ligand-induced cell killing, the caspase inhibitors, Z-VAD-FMK or Z-DEVD-FMK (Calbiochem, San Diego, Calif.) were added to the culture medium 1 hour before the sigma ligands, and the MTS assay performed as described above."}, "sigma-2 receptors": {"target": "T1, sigma-2 receptors (Mus musculus, UniProt Q8VD00)", "T1 construct": "Membrane homogenates were prepared from ˜400 mg Panc-02 mouse tumor allografts; from tissue; host or cells: Panc-02 mouse pancreatic tumor allografts (membrane homogenates)", "T1 sequence (Q8VD00 1-176)": "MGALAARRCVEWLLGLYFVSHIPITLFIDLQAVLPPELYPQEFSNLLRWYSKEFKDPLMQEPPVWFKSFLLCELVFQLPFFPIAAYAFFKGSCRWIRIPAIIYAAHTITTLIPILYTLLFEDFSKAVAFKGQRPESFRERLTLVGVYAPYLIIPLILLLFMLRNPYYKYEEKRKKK", "test": "Saturation binding (Scatchard analysis) of [3H]RHM-1 in Panc-02 tumor allograft membrane homogenates", "procedure": "Membrane homogenates were prepared from ˜400 mg Panc-02 mouse tumor allografts, which were removed from tumor bearing mice and frozen on dry ice immediately and stored at −80° C. until used. Before homogenization, the tumor allografts were allowed to thaw slowly on ice. Tissue homogenization was carried out at 4° C. using a Potter-Elvehjem tissue grinder at a concentration of 1 g of tissue/ml of 50 mM Tris-HCl at pH 8.0. The crude membrane homogenate was then transferred to a 50 ml centrifuge tube and resuspended to a concentration of 200 mg of tissue/ml of 50 mM Tris-HCl. Additional homogenization was accomplished using an Ultra-Turrax T8 polython homogenizer (IKA Works, Inc, Wilmington, N.C.). The final homogenate was then centrifuged for 10 min at 1000 g, the pellet discarded and the supernatant mixed by vortexing and stored at −80° C. until used. The protein concentration of the suspension was determined (DC protein assay, Bio-Rad, Hercules, Calif.) and averaged ˜10 mg of protein/ml of stock solution. […] The concentrations of the radioligand ranged from 0.1-18 nM. […] Each filter was washed with 200 μl of ice-cold wash buffer for a total of three washes. […] The equilibrium dissociation constant (Kd) and maximum number of binding sites (BBmax) were determined by a linear regression analysis of the transformed data using the method of Scatchard.\nData from saturation radioligand binding studies was transformed to determine the Hill coefficient, nH, defined as: […]\nIn these experiments, direct saturation binding studies were carried out using [^3H]RHM-1 with membrane homogenates of PancO2 tumor allografts."}, "CFPAC-1": {"test_system": "CFPAC-1", "test": "Apoptosis in CFPAC-1 cells", "type": "cell-based, human", "details": "CFPAC-1, highest dose tested", "procedure": "as §1, with “Biosciences). […]” for “Biosciences).”"}, "[4]": {"test_system": "pancreatic cancer cell lines (Panc-02, CFPAC-1, AsPC-1, Panc-1)", "test": "Apoptosis in pancreas cancer cell lines (TUNEL / cleaved caspase-3, flow cytometry)", "type": "cell-based, mouse, human", "details": "all cell lines tested with the exception of CFPAC-1", "procedure": "as §1, §2"}, "[5]": {"details": "membrane homogenates of Panc-02 tumor allografts"}}, "note": "Structures can show the parent of a compound that is named as a salt. Where two headings read alike, the source gives them in different places. Peptide text beside a SMILES is read from it. * marks the point of attachment. Cbz = O=C(OCc1ccccc1)*; CH2F = FC*"}
{"smiles": "COc1ccc(C)cc1NC(=O)OC1CC2CCCC(C1)N2CCCCCCNS(=O)(=O)c1cccc2c(N(C)C)cccc12", "note": "(stereo not drawn) (as salt: oxalate) [Compound 9, N-(9-(6-(5-Dimethylamino-1-naphthalenesulfonamido))hexyl)-9-azabicyclo[3.3.1]-nonan-3α-yl-N-(2-methoxy-5-methylphenyl)carbamate oxalate]", "values": [{"measurement": "melting point", "result": "162 to 163", "unit": "°C"}]}
{"smiles": "CC(=O)N[C@@H](CC(=O)O)C(=O)N[C@@H](CCC(=O)O)C(=O)N[C@H](C(=O)N[C@H](C=O)CC(=O)O)C(C)C", "note": "[DEVD-CHO]", "values": [{"measurement": "effect on sigma-2 receptor ligand-induced apoptosis", "setting": "Panc-02 cells", "result": "prevented"}]}
{"smiles": "COc1cccc2c1C(=O)c1c(O)c3c(c(O)c1C2=O)C[C@@](O)(C(=O)CO)C[C@@H]3O[C@H]1C[C@H](N)[C@H](O)[C@H](C)O1", "note": "[Dox, Doxorubicin, reference compound]", "values": [{"measurement": "number of colonies formed compared to control cells", "setting": "EMT-6 cells [1]; EMT-6, 10, 20, and 30 nM of Dox alone", "result": "not changed significantly"}, {"measurement": "decrease in colony forming efficiency", "setting": "EMT-6 cells [1]; EMT-6, Dox 40 nM alone", "result": "about 25%"}, {"measurement": "TUNEL-positive cells", "setting": "EMT-6 cells [2]", "result": 10, "unit": "%"}]}
{"smiles": "CC(=O)N[C@@H](Cc1ccc(O)cc1)C(=O)N[C@H](C(=O)N[C@@H](C)C(=O)N[C@H](C=O)CC(=O)O)C(C)C", "note": "[YVAD-CHO]", "values": [{"measurement": "effect on sigma-2 receptor ligand-induced apoptosis", "setting": "Panc-02 cells", "result": "no effect"}]}
{"smiles": "COC(=O)C[C@H](NC(=O)[C@H](C)NC(=O)[C@@H](NC(=O)OCc1ccccc1)C(C)C)C(=O)CF", "note": "[Z-VAD-FMK] (Cbz-Val-Ala-Asp(OMe)-CH2F)", "values": [{"measurement": "effect on DNA fragmentation after treatment with the three σ2 selective ligands", "setting": "EMT-6 cells [3]", "result": "partially blocked"}, {"measurement": "effect on cell death / cytotoxic effects induced by the three σ2 selective ligands", "setting": "EMT-6 cells [3]", "result": "partially, but not completely, blocked"}, {"measurement": "effect on cell death / cytotoxic effects induced by the three σ2 selective ligands", "setting": "EMT-6 cells [3]; listed as Z-VADFMK", "result": "partially blocked"}, {"measurement": "effect on sigma-2 receptor ligand-induced apoptosis", "setting": "Panc-02 cells", "result": "prevented"}]}
{"smiles": "COc1cc2c(cc1OC)CN(CCCCNC(=O)c1cc(C)ccc1OC)CC2", "note": "[[3H]RHM-1]", "values": [{"measurement": "Bmax (maximum number of binding sites)", "setting": "sigma-2 receptors; [5]", "result": 1250, "unit": "fmol/mg protein"}, {"measurement": "Kd", "setting": "sigma-2 receptors; [5]", "result": 4.88, "unit": "nM"}, {"measurement": "Hill coefficient nH (mean)", "setting": "sigma-2 receptors; saturation binding, Panc-02 tumor allografts", "result": "close to unity"}]}
{"smiles": "CC(C)=CCN1CCC2(C)c3cc(O)ccc3CC1C2C", "note": "(stereo not drawn) [pentazocine, reference compound]", "values": [{"measurement": "increase in apoptosis", "setting": "CFPAC-1", "result": "8-10%"}, {"measurement": "toxicity to pancreas cancer cell lines", "setting": "[4]", "result": "minimal toxicity"}]}
